Laboratory results published in US20070020190A1, “Medicament comprising a highly potent long-lasting beta2-agonist in combination with other active ingredients” (priority 2003, published 2007).
Structures can show the parent of a compound that is named as a salt.

What was measured:
[1] = test system: rat lung oedema induced by Sephadex; assay: Sephadex-induced lung oedema model; assay type: in vivo; details: intratracheal; for non effective dose on Sephadex-induced lung oedema: from dose-response curves
Description: The rat lung oedema induced by Sephadex is a model which leads to inflammatory cells infiltration and long-lasting interstitial oedema. […] The test substances were suspended in saline and administered intratracheally suitably diluted in the Sephadex suspension. 24 h post-administration, the animals were sacrificed and the lungs removed and weighted. Percent inhibition of the Sephadex-induced oedema was then determined.

[2] = test system: bronchoconstriction induced by acetaldehyde in the guinea pig; assay: Acetaldehyde-induced bronchoconstriction, histamine release and plasma extravasation in anaesthetized ventilated guinea pigs; assay type: in vivo
Description: Pharmacol., 362:184-189, 2000; as well as in a model of acetaldehyde induced bronchoconstriction (Berti et al., Arzneim-Forsch/Drug Res 1994; 44: 323-326).
The protective activity of TA 2005 (0.1 to 10 pmol), formoterol (0.3 to 30 pmol) or budesonide (31.25 to 500 nmol) was determined after intratracheal superfusion alone or in combination.

healthy male volunteers = details: single inhaled doses 0.8-12.8 μg, cited from earlier work
asthmatic patients = assay: Preliminary clinical trial of bronchodilator efficacy (FEV1 by spirometry) in asthmatic patients; assay type: in vivo; details: single dose of 1 μg, inhalation
Description: The bronchodilator efficacy of TA 2005, defined as increase from baseline in the forced expiratory volume over one second (FEV1), measured by spirometry, has been assessed in a preliminary clinical trial in a small group of asthmatic patients.
The results have shown that already following administration of a single dose of 1 μg a mean and persistent increase of FEV1 approximately 30% greater than baseline can be obtained.

[3] = test system: isolated tracheal strips from ovalbumin-sensitised guinea pigs; assay: β2-desensitisation in isolated tracheal strips from ovalbumin-sensitised guinea pigs (carbachol-induced contraction); design: species or system guinea pig
Description: A prolonged use of β2-agonists results in down-regulation of pulmonary β2-adenoceptors. This phenomenon can be counteracted by concomitant treatment with a corticosteroid.
In the present study tracheal strips obtained from ovalbumin-sensitised guinea-pigs (100 mg/kg ip and 100 mg/kg sc, 20 days before sacrifice) were submitted to β2-desensitisation by contact for two 20-min periods with a supra-maximal concentration of salbutamol (5*10^−6 M). In some experiments guinea pigs 24 and 1.5 h before sacrifice received 50 mg/kg ip of budesonide.

[4] = test system: isolated guinea pig tracheal strips; assay: Carbachol-induced contraction in isolated guinea pig tracheal strips
Text: The pharmacological interaction between the β2-adrenoceptor agonist TA 2005 and the M3-receptor antagonist tiotropium bromide was investigated in isolated guinea pig tracheal strips contracted with carbachol.

[5] = test system: acetylcholine-induced bronchoconstriction in guinea-pigs; assay: Acetylcholine-induced bronchoconstriction in guinea pigs (Konzett and Rossler); assay type: in vivo, guinea pig; details: for ED50, acetylcholine-induced bronchoconstriction: acetylcholine 20 μg/kg iv, superfused onto tracheal mucosa
Description: Guinea pigs were prepared as originally described by Konzett and Rossler, Naunyn-Schmiedeberg's Arch Pharmacol, 1940; 195: 556-557.
Bronchoconstriction was induced by intravenous administration of acetylcholine (20 μg/kg). The antibronchospastic activity of different concentrations of tiotropium (0.1 to 30 pmol) or TA 2005 (0.3 to 100 pmol), alone or in combination, was investigated.

## COc1ccc(CC(C)NCC(O)c2ccc(O)c(NC=O)c2)cc1 (stereo not shown) [formoterol]
[1]; 24 h post-administration, TA 2005 0.001-0.1, formoterol 0.01-2, budesonide 15-480 nmol/kg
  effect on Sephadex-induced lung oedema: dose-dependent remission
[1]
  non effective dose on Sephadex-induced lung oedema: 0.1 nmol/kg
[2]; 30 pmol, intratracheal superfusion
  decline of anti-bronchoconstrictive effect after 240 min: ~50%
[2]; intratracheal superfusion, TA 2005 0.1-10 pmol, formoterol 0.3-30 pmol, budesonide 31.25-500 nmol
  effect on AcCHO effects (bronchoconstriction, histamine release, plasma extravasation): potently antagonised

## CCCC1O[C@@H]2C[C@H]3[C@@H]4CCC5=CC(=O)C=C[C@]5(C)[C@H]4[C@@H](O)C[C@]3(C)[C@]2(C(=O)CO)O1 (stereo partly shown) [budesonide]
[1]; budesonide alone (absence of TA 2005)
  dose of budesonide needed to significantly inhibit Sephadex-induced lung oedema: 240 nmol/kg
[1]; in the presence of TA 2005 (0.01 nmol/kg)
  dose of budesonide significantly inhibiting Sephadex-induced lung oedema: 15 nmol/kg
[1]; in the presence of formoterol (0.1 nmol/kg)
  dose of budesonide giving significant reduction in Sephadex-induced lung weight increase: 120 nmol/kg
[2]; budesonide alone, intratracheal superfusion
  ED50, bronchoconstriction: 396 nmol
[2]; combined with 0.1 pmol of TA 2005
  fold reduction of budesonide ED50, bronchoconstriction: 5.3 fold
[2]; combined with 0.3 pmol of TA 2005
  fold reduction of budesonide ED50, bronchoconstriction: 14.3 fold
[2]; combined with 0.3 pmol of formoterol
  fold reduction of budesonide ED50, bronchoconstriction: 3.0 fold
[2]; combined with 1 pmol of formoterol
  fold reduction of budesonide ED50, bronchoconstriction: 5.9 fold

## COc1ccc(CC(C)NCC(O)c2ccc(O)c3[nH]c(=O)ccc23)cc1 [TA 2005, 8-Hydroxy-5-[(1R)-1-hydroxy-2-[[(1R)-2-(4-methoxyphenyl)-1-methylethyl]amino]ethyl-2(1H)-quinolinone hydrochloride salt]
Healthy male volunteers; metered dose nebuliser system
  maximum no adverse effect dose: 9.6 µg
Healthy male volunteers
  effect on heart rate, tremor, pulmonary function and plasma potassium: dose-dependent increase in heart rate, tremor and pulmonary function and a decrease in plasma potassium
Asthmatic patients
  mean and persistent increase of FEV1 greater than baseline: approximately 30%
[1]
  non effective dose on Sephadex-induced lung oedema: 0.01 nmol/kg
[3]; after β2-desensitisation with salbutamol 5*10^−6 M
  loss of potency in relaxing the carbachol-induced contraction: about 3 times
[3]; after β2-desensitisation, budesonide pretreatment 50 mg/kg ip 24 and 1.5 h before sacrifice
  potentiation of relaxing effects: about 6 times
[4]; Cavia porcellus, TA 2005 10^−12 M
  inhibition at 1 pM: 29.3 ± 6.1%
[5]; 3 pmol of TA 2005 in the absence of tiotropium
  inhibition of the effect of acetylcholine: 18%
[5]
  ED50, acetylcholine-induced bronchoconstriction: 16.7 pmol

## C[N+]1(C)[C@@H]2C[C@@H](OC(=O)C(O)(c3cccs3)c3cccs3)C[C@H]1[C@@H]1O[C@@H]12 [tiotropium bromide]
[4]; tiotropium bromide 3*10^−10 M
  inhibition of carbachol-induced contraction: 17.1±2.2%
[5]; P<0.001
  potency relative to TA 2005: 5.2 fold
[5]
  ED50, acetylcholine-induced bronchoconstriction: 3.2 pmol
[5]; tiotropium 0.1-30 pmol, TA 2005 0.3-100 pmol, alone
  effect on acetylcholine-induced bronchoconstriction: dose-dependently antagonize
